Results: ChEMBL document CHEMBL1141627, “A cell-penetrating peptidic GRP78 ligand for tumor cell-specific prodrug therapy” (Bioorg Med Chem Lett, 2008)
Positions of bridges follow the written chain, without caps; N, C: chain ends. Non-standard residues stand in square brackets, D forms with d. Residues, ends and D or L forms follow the SMILES beside them. *: point of attachment. X1 = CC(=O)O[C@H]1C(=O)[C@@]2(C)[C@H]([C@H](OC(=O)c3ccccc3)[C@]3(O)C[C@H](OC(=O)[C@H](OC(=O)OCc4ccc(N*)cc4)[C@@H](NC(=O)c4ccccc4)c4ccccc4)C(C)=C1C3(C)C)[C@]1(OC(C)=O)CO[C@@H]1C[C@@H]2O; Cit = NC(=O)NCCC[C@H](N)C(=O)O

These compounds were tested on SJSA-1 (assay: Cytotoxicity against human SJSA1 cells expressing GRP78 after 6 hrs by MTT assay). Conditions: SJSA-1, 6 h.
Format: functional, cell-based
With `CC(=O)N[C@H]1CSSC[C@@H](C(=O)N[C@H](C(=O)N[C@@H](CCCNC(N)=O)C(=O)N[C@H](C(=O)N[C@@H](CCCNC(N)=O)C(=O)Nc2ccc(COC(=O)O[C@@H](C(=O)O[C@H]3C[C@@]4(O)[C@@H](OC(=O)c5ccccc5)[C@@H]5[C@]6(OC(C)=O)CO[C@@H]6C[C@H](O)[C@@]5(C)C(=O)[C@H](OC(C)=O)C(=C3C)C4(C)C)[C@@H](NC(=O)c3ccccc3)c3ccccc3)cc2)C(C)C)C(C)C)NC(=O)[C@H](C(C)C)NC(=O)[C@H](CCCNC(=N)N)NC(=O)[C@H](C(C)C)NC(=O)[C@H](Cc2ccc(O)cc2)NC(=O)CNC(=O)CNC(=O)[C@@H]2CCCN2C(=O)[C@H](CC(C)C)NC(=O)[C@H](C)NC(=O)[C@H](C(C)C)NC(=O)[C@H]([C@@H](C)O)NC1=O` (Ac-CTVALPGGYVRVCV[Cit]V[Cit]-X1; disulfide 1-13) the IC50 was 1.1 nM. `CC(=O)O[C@H]1C(=O)[C@@]2(C)[C@H]([C@H](OC(=O)c3ccccc3)[C@]3(O)C[C@H](OC(=O)[C@H](O)[C@@H](NC(=O)c4ccccc4)c4ccccc4)C(C)=C1C3(C)C)[C@]1(OC(C)=O)CO[C@@H]1C[C@@H]2O` [PACLITAXEL] gave an IC50 of 3.2 nM. `COc1cccc2c1C(=O)c1c(O)c3c(c(O)c1C2=O)C[C@@](O)(C(=O)CO)C[C@@H]3O[C@H]1C[C@H](N)[C@H](O)[C@H](C)O1` [DOXORUBICIN] gave an IC50 of 6.2 nM.
